# Data: US4371463A, “Enzyme-resistant opiate pentapeptides” (priority 1977, dated 1983)
# Square brackets hold non-standard residues; d marks the D form. Ends that are not written are not given here. Peptide text beside a SMILES is read from it.
# Experiments:
# rats = assay: Analgesia after intracerebral microinjection in rats (tail-flick, flinch-jump, limb pinch); type: in vivo, rat
# Experimental: Sprague-Dawley rats were stereotaxically implanted with chronic indwelling cannulae guides constructed from 23 gauge TW stainless steel tubing and fitted with stilettes of corresponding length. […] Testing was initiated approximately one week following surgery. The compounds being assessed for analgesic activity were dissolved in pyrogen-free water and microinjected at various dose levels in a volume 1 μl through 30 gauge injectors which protruded 2 mm past the guide cannulae tips.
# Analgesia was assessed by the D'Amour and Smith "tail-flick" procedure, the "flinch-jump" test, and by subjectively evaluating an animal's reaction to pinches of the limbs with forceps. In the "tail-flick" test, a high intensity light was focused on a rat's tail which had been blackened with a felt-tip pen, and the time that it took an animal to remove its tail from this radiant heat was measured to the nearest 0.5 second. In the "flinch-jump" test, AC shock intensity at which an animal jumped and squealed was quantified 15 minutes after an injection (immediately after testing in the tail-flick test). Reactions to limb pinches were also noted at this time. Baseline measures were always taken approximately one hour prior to injection. All animals were tested at 1, 5, 15, 30, 60, 120, and 180 minutes after injection and then at one hour intervals until their response latencies had recovered to baseline levels.
# opiate receptors = assay: Opiate receptor affinity by inhibition of stereospecific 3H-naloxone binding to rat brain membranes; conditions: for IC50: rat brain membranes, 1 h at 0° C., 100 mM NaCl, 1.3 nM 3H-naloxone, read-out: Opiate Receptor Affinity (concentration causing 50% inhibition of stereospecific 3H-naloxone binding); for opiate receptor affinity, fold greater than the corresponding L-Ala2 isomer: vs L-Ala2-Met-enkephalin-amide
# Experimental: Male rats weighing 180-200 g (Sprague-Dawley) were decapitated and each brain with the cerebellum removed was homogenized in 150 mls of ice-cold standard buffer (0.05 M Tris-HCl, pH 7.0 at 25° C.). After refrigerated centrifugation at 12,000×g, the membranes were reconstituted in the standard buffer. After recentrifugation, each brain was suspended in 10 mls of the standard buffer. Aliquots of the freshly prepared membrane preparation (100 μl) were incubated for one hour at 0° C. with various concentrations of the pentapeptide and 100 mM NaCl in a final volume of 0.5 ml with ^3 H-naloxane (New England Nuclear, 34 Ci/mmole) in a concentration of 1.3 nM (20,000 cpm). Incubation was begun with the addition of brain membranes, which were added last. After rapid filtration and washing with two 7 ml portions of ice-cold standard buffer, membrane-laden filters were transferred and counted at 40-45% efficiency at least six hours after shaking with detergent scintillation fluor (Aquasol, New England Nuclear). Control incubations containing levallorphan (100 nM) or dextrallorphan (100 nM) were included. Stereospecific binding (^3 H-naloxone bound in the presence of levallorphan subtracted from binding in the presence of dextrallorphan) represented 85-90% of the total bound naloxane in all experiments. Control values in all experiments ranged between 2000-2800 cpm. From a plot of the percent inhibition of stereospecific ^3 H-naloxane binding as a function of pentapeptide concentration, the opiate receptor affinity of the pentapeptide was determined as that concentration of pentapeptide, in μM, causing 50% inhibition of stereospecific ^3 H-naloxone binding. In this test, the lower the numerical value obtained, the higher is the opiate receptor affinity of the pentapeptide.
# [1] = Preincubation with rat brain membranes under physiological conditions at 37° C., then residual opiate receptor inhibitory activity; type: in vitro ADME
# [2] = system: rat brain opiate receptors; conditions: cited from earlier work
# rat = conditions: cited from earlier work; for duration of analgesia: injected directly into active brain sites
# [3] = 5-10 μg microinjected into rat brain
compound,measurement,setting,value
CSCC[C@H](NC(=O)[C@H](Cc1ccccc1)NC(=O)CNC(=O)[C@@H](C)NC(=O)[C@@H](N)Cc1ccc(O)cc1)C(N)=O [D-Ala^2 -Met-enkephalin-amide],intensity of analgesia compared with 5 μg of morphine,"rats; 10 μg microinjected, 1 and 2 hours after injection",not as intense
same,persistence of analgesia compared with 5 μg of morphine,"rats; 10 μg microinjected, rat",about the same length of time
same,analgesic effects compared with comparable dose levels of morphine,rats; [3],almost as potent and long-lasting
same,duration of action (analgesia),rats; [3],several hours
same,analgesia elicited,"rats; 5-10 μg microinjected, periaqueductal gray, rat",quite effective in eliciting analgesia
same,persistence of analgesia after injection,"rats; 5-10 μg microinjected, rat",three
same,effect of naloxone preinjection on analgesia,rats; naloxone 2 mg/kg i.p. 15 minutes before 10 μg microinjection,almost complete reversal of analgesia
same,IC50,opiate receptors,0.4 µM
same,"opiate receptor affinity, fold greater than the corresponding L-Ala2 isomer",opiate receptors,10 fold
CSCC[C@H](NC(=O)[C@H](Cc1ccccc1)NC(=O)CNC(=O)[C@@H](C)NC(=O)[C@@H](N)Cc1ccc(O)cc1)C(=O)O [D-Ala^2 -Met-enkephalin],duration of action (analgesia),rats; [3],several hours
same,analgesia results compared with D-Ala2-Met-enkephalin-amide,"rats; microinjected, rat",quite similar
same,analgesic effects compared with comparable dose levels of morphine,"rats; rat, in vivo",almost as potent and long-lasting
same,IC50,opiate receptors,0.4 µM
same,"opiate receptor affinity, fold greater than the corresponding L-Ala2 isomer",opiate receptors,10 fold
CSCC[C@H](NC(=O)[C@H](Cc1ccccc1)NC(=O)CNC(=O)[C@@H](Cc1ccccc1)NC(=O)[C@@H](N)Cc1ccc(O)cc1)C(N)=O [D-Phe^2 -Met-enkephalin-amide] (H-Y[dF]GFM-NH2),IC50,opiate receptors,2 µM
CSCC[C@H](NC(=O)[C@H](Cc1ccccc1)NC(=O)CNC(=O)[C@H](NC(=O)[C@@H](N)Cc1ccc(O)cc1)C(C)C)C(N)=O [D-Val^2 -Met-enkephalin-amide] (H-Y[dV]GFM-NH2),dose level needed to produce the same analgesic response as 5 μg of D-Ala2-Met-enkephalin-amide,"rats; microinjected, rat",20 µg
same,IC50,opiate receptors,4 µM
"CSCC[C@H](NC(=O)[C@H](Cc1ccccc1)NC(=O)CNC(=O)[C@H](C)NC(=O)[C@@H](N)Cc1ccc(O)cc1)C(N)=O [L-Ala^2 -Met-enkephalin-amide, reference compound]",analgesia elicited,"rats; 10 μg microinjected, rat",failed to elicit any significant analgesia
same,preincubation time after which complete loss of opiate receptor inhibitory activity resulted,[1],60 min
same,IC50,opiate receptors,4 µM
"CC(C)C[C@H](NC(=O)[C@H](Cc1ccccc1)NC(=O)CNC(=O)CNC(=O)[C@@H](N)Cc1ccc(O)cc1)C(=O)O [Leu-enkephalin, H-L-Tyr-Gly-Gly-L-Phe-L-Leu-OH, reference compound]",IC50,opiate receptors,0.7 µM
"CSCC[C@H](NC(=O)[C@H](Cc1ccccc1)NC(=O)CNC(=O)CNC(=O)[C@@H](N)Cc1ccc(O)cc1)C(=O)O [Met-enkephalin, H-L-Tyr-Gly-Gly-L-Phe-L-Met-OH]",analgesia elicited,"rats; 120 μg microinjected, rat",relatively low level of analgesia
same,time after injection by which analgesia returned to pre-drug level,"rats; 120 μg microinjected, rat",≤ 5 min
same,affinity for rat brain opiate receptors relative to morphine,[2],about half
same,preincubation time after which complete loss of opiate receptor inhibitory activity resulted,[1],20 min
same,IC50,opiate receptors,0.2 µM
same,duration of analgesia,rat,several minutes
same,"analgesic potency, fold weaker than morphine","rat; rat, in vivo",at least 50 fold
CSCC[C@H](NC(=O)[C@H](Cc1ccccc1)NC(=O)CNC(=O)CN(C)C(=O)[C@@H](N)Cc1ccc(O)cc1)C(N)=O [Sar^2 -Met-enkephalin-amide],IC50,opiate receptors,8 µM
CN1CC[C@]23c4c5ccc(O)c4O[C@H]2[C@@H](O)C=C[C@H]3[C@H]1C5 [morphine],duration of analgesia,rat,several hours
YPGFM-NH2 [L-Pro^2 -Met-enkephalin-amide],IC50,opiate receptors,90 µM
